Activity calls are given as the source filed them. The calls are words filed in the database; no cut-off is given here.
Tests used:
[1] = target: 5-hydroxytryptamine receptor 3A (Homo sapiens, UniProt P46098)
Description: Binding affinity to serotonin 5-HT3 receptor (unknown origin) by PDSP assay

[2] = target: 5-hydroxytryptamine receptor 5A (Homo sapiens, UniProt P47898)
Description: Binding affinity to serotonin 5-HT5A receptor (unknown origin) by PDSP assay

D(1B) dopamine receptor = D(1B) dopamine receptor (Homo sapiens, UniProt P21918)
[3] = target: Alpha-1D adrenergic receptor (Homo sapiens, UniProt P25100); assay: Binding affinity to adrenergic alpha1D receptor (unknown origin) by PDSP assay
Histamine H2 receptor = Histamine H2 receptor (Homo sapiens, UniProt P25021); assay: Binding affinity to H2 histamine receptor (unknown origin) by PDSP assay
[4] = target: Muscarinic acetylcholine receptor M1 (Homo sapiens, UniProt P11229)
Muscarinic acetylcholine receptor M1, sequence (P11229 whole entry): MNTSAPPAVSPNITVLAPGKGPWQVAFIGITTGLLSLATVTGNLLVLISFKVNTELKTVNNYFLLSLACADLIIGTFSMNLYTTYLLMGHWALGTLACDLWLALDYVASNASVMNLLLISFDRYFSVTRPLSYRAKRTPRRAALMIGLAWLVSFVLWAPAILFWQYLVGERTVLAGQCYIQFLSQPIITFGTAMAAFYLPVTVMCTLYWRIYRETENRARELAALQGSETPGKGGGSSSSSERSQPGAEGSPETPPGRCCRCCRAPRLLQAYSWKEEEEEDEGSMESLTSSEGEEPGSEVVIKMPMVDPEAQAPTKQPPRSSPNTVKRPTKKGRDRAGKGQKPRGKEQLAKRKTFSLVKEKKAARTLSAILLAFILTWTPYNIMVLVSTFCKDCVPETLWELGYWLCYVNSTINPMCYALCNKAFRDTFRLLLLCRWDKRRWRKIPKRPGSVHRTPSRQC
Description: Binding affinity to M1 receptor (unknown origin) by PDSP assay

[5] = target: Muscarinic acetylcholine receptor M3 (Homo sapiens, UniProt P20309)
Description: Binding affinity to M3 receptor (unknown origin) by PDSP assay

[6] = target: T1, 5-hydroxytryptamine receptor 2A (Homo sapiens, UniProt P28223); assay: Agonist activity at 5-HT2A receptor (unknown origin) relative to serotonin; conditions: concentration not given here
T1 sequence (P28223 whole entry): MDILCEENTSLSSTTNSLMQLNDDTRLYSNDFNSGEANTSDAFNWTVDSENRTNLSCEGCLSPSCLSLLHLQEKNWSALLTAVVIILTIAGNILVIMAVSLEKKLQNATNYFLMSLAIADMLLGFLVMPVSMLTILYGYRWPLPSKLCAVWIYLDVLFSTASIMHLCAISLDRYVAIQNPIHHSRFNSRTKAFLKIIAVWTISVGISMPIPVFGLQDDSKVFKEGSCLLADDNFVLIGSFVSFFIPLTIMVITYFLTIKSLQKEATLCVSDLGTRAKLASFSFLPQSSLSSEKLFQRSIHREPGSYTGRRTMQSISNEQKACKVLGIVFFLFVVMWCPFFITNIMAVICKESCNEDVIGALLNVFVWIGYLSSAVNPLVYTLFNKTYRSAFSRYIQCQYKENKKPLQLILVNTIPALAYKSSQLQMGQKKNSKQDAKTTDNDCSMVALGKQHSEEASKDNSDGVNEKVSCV

D(2) dopamine receptor [7] = target: T2, D(2) dopamine receptor (Homo sapiens, UniProt P14416); assay: Agonist activity at dopamine D2 receptor (unknown origin) relative to serotonin; conditions: concentration not given here
T2 sequence (P14416 whole entry): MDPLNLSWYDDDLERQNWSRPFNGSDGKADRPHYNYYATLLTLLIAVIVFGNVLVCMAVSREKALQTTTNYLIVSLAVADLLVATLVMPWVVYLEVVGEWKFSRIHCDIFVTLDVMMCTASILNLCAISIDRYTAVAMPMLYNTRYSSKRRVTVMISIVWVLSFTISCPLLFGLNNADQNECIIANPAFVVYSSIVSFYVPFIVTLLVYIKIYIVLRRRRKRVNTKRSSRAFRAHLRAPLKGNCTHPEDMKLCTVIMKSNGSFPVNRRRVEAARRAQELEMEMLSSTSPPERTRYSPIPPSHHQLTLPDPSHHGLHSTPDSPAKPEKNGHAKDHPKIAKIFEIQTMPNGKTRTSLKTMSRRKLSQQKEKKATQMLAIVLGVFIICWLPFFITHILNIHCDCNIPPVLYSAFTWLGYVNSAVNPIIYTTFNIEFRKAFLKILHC

[8] = target: T1, 5-hydroxytryptamine receptor 2A; assay: Antagonist activity at 5-HT2A receptor (unknown origin) relative to ketanserin; conditions: concentration not given here
D(2) dopamine receptor [9] = target: T2, D(2) dopamine receptor; assay: Antagonist activity at dopamine D2 receptor (unknown origin) relative to ketanserin; conditions: concentration not given here
Rattus norvegicus [10] = assay: Inhibition of pre-pulse in ip dosed rat; assay type: functional, organism-based
Rattus norvegicus [11] = assay: Toxicity in po dosed rat assessed as weight gain after 2 weeks relative to control; assay type: organism-based; conditions: in vivo, 336 h
Rattus norvegicus [12] = assay: Toxicity in po dosed rat assessed as abnormal metabolic changes after 2 weeks relative to control; assay type: organism-based; conditions: in vivo, 336 h
Rattus norvegicus [13] = assay: Toxicity in po dosed rat assessed as elevation in liver enzyme level after 2 weeks relative to control; assay type: organism-based; conditions: in vivo, 336 h
Rattus norvegicus [14] = assay: Toxicity in po dosed rat assessed as change in renal parameter after 2 weeks relative to control; assay type: organism-based; conditions: in vivo, 336 h
[15] = target: T1, 5-hydroxytryptamine receptor 2A
Description: Binding affinity to serotonin 5-HT2A receptor (unknown origin) by PDSP assay

[16] = target: 5-hydroxytryptamine receptor 2B (Homo sapiens, UniProt P41595); assay: Binding affinity to serotonin 5-HT2B receptor (unknown origin) by PDSP assay
[17] = target: 5-hydroxytryptamine receptor 4 (Homo sapiens, UniProt Q13639); assay: Binding affinity to serotonin 5-HT4 receptor (unknown origin) by PDSP assay
D(2) dopamine receptor [18] = target: T2, D(2) dopamine receptor
Description: Binding affinity to dopamine D2 receptor (unknown origin) by PDSP assay

[19] = target: Alpha-2A adrenergic receptor (Homo sapiens, UniProt P08913)
Description: Binding affinity to adrenergic alpha2A receptor (unknown origin) by PDSP assay

[20] = target: Alpha-2C adrenergic receptor (Homo sapiens, UniProt P18825)
Description: Binding affinity to adrenergic alpha2C receptor (unknown origin) by PDSP assay

[21] = target: Muscarinic acetylcholine receptor M2 (Homo sapiens, UniProt P08172)
Description: Binding affinity to M2 receptor (unknown origin) by PDSP assay

[22] = target: Muscarinic acetylcholine receptor M4 (Homo sapiens, UniProt P08173)
Description: Binding affinity to M4 receptor (unknown origin) by PDSP assay

[23] = target: Muscarinic acetylcholine receptor M5 (Homo sapiens, UniProt P08912)
Description: Binding affinity to M5 receptor (unknown origin) by PDSP assay

[24] = target: 5-hydroxytryptamine receptor 1A (Homo sapiens, UniProt P08908)
5-hydroxytryptamine receptor 1A, sequence (P08908 whole entry): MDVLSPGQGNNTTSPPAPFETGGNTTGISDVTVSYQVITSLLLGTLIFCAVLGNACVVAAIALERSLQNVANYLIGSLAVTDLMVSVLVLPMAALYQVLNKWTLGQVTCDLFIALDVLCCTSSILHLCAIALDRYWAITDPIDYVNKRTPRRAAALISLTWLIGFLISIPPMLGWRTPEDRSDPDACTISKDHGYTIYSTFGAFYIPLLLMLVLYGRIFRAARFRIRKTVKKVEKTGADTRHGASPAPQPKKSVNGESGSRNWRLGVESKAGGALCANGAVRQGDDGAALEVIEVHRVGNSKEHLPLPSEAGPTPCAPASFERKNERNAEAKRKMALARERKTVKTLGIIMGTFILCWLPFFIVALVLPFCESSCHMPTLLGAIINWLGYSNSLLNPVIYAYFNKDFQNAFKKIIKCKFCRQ
Description: Binding affinity to serotonin 5-HT1A receptor (unknown origin) by PDSP assay

[25] = target: 5-hydroxytryptamine receptor 1B (Homo sapiens, UniProt P28222)
5-hydroxytryptamine receptor 1B, sequence (P28222 whole entry): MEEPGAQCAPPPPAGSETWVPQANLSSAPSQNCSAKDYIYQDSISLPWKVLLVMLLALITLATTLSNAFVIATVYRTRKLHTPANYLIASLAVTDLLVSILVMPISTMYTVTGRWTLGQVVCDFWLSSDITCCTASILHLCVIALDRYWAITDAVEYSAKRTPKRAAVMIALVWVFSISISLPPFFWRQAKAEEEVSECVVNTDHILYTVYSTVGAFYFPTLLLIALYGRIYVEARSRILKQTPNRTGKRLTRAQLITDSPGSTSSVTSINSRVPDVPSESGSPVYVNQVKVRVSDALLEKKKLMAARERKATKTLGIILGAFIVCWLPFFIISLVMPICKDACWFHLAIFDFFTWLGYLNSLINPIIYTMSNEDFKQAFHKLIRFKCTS
Description: Binding affinity to serotonin 5-HT1B receptor (unknown origin) by PDSP assay

[26] = target: 5-hydroxytryptamine receptor 1D (Homo sapiens, UniProt P28221)
5-hydroxytryptamine receptor 1D, sequence (P28221 whole entry): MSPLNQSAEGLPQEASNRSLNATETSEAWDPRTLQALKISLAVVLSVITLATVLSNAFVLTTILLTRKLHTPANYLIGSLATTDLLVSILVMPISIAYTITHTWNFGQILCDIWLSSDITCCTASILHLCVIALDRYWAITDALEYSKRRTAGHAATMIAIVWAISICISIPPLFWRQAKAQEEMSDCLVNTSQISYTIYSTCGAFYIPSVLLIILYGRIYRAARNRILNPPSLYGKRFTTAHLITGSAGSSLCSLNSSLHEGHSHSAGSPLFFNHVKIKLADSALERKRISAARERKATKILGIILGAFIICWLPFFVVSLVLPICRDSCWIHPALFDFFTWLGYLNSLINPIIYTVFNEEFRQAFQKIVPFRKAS
Description: Binding affinity to serotonin 5-HT1D receptor (unknown origin) by PDSP assay

[27] = target: 5-hydroxytryptamine receptor 1E (Homo sapiens, UniProt P28566)
5-hydroxytryptamine receptor 1E, sequence (P28566 whole entry): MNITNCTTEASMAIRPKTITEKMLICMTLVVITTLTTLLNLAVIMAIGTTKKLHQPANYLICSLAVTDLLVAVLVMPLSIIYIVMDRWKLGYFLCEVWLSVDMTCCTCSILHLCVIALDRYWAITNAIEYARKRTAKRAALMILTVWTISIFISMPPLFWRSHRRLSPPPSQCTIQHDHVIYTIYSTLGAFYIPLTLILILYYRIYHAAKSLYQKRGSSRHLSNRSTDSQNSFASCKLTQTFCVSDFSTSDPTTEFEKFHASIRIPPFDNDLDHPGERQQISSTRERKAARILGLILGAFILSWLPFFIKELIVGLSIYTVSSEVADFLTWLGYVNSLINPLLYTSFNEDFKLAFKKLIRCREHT
Description: Binding affinity to serotonin 5-HT1E receptor (unknown origin) by PDSP assay

[28] = target: 5-hydroxytryptamine receptor 2C (Homo sapiens, UniProt P28335)
Description: Binding affinity to serotonin 5-HT2C receptor (unknown origin) by PDSP assay

[29] = target: 5-hydroxytryptamine receptor 6 (Homo sapiens, UniProt P50406)
Description: Binding affinity to serotonin 5-HT6 receptor (unknown origin) by PDSP assay

[30] = target: 5-hydroxytryptamine receptor 7 (Homo sapiens, UniProt P34969)
Description: Binding affinity to serotonin 5-HT7 receptor (unknown origin) by PDSP assay

D(1A) dopamine receptor = D(1A) dopamine receptor (Homo sapiens, UniProt P21728)
Description: Binding affinity to dopamine D1 receptor (unknown origin) by PDSP assay

D(3) dopamine receptor = D(3) dopamine receptor (Homo sapiens, UniProt P35462)
Description: Binding affinity to dopamine D3 receptor (unknown origin) by PDSP assay

[31] = target: Alpha-1A adrenergic receptor (Homo sapiens, UniProt P35348)
Description: Binding affinity to adrenergic alpha1A receptor (unknown origin) by PDSP assay

[32] = target: Alpha-1B adrenergic receptor (Homo sapiens, UniProt P35368)
Alpha-1B adrenergic receptor, sequence (P35368 whole entry): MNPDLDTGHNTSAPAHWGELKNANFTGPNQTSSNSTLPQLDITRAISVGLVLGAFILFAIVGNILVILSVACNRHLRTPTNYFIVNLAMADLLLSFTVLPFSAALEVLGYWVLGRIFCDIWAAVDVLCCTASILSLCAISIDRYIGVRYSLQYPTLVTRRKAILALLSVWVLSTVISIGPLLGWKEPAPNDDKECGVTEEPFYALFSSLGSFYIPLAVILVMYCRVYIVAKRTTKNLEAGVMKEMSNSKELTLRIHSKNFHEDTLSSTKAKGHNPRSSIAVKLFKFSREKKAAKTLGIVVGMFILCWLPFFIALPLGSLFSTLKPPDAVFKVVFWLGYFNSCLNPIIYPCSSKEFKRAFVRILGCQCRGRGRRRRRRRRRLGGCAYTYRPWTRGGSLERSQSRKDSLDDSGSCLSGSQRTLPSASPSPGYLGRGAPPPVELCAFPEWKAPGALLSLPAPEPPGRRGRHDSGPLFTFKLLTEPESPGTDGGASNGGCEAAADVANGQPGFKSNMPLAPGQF
Description: Binding affinity to adrenergic alpha1B receptor (unknown origin) by PDSP assay

5-hydroxytryptamine receptor 5A, sequence (P47898 whole entry): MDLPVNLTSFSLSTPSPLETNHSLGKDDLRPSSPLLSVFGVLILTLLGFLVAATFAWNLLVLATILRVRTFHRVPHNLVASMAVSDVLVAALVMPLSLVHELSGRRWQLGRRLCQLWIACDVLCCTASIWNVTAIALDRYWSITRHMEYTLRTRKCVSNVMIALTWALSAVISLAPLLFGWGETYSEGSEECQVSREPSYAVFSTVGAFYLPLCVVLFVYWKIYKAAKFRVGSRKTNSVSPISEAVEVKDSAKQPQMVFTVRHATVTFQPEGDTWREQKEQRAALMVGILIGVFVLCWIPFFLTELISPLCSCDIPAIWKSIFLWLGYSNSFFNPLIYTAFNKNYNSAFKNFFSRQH
5-hydroxytryptamine receptor 3A, sequence (P46098 whole entry): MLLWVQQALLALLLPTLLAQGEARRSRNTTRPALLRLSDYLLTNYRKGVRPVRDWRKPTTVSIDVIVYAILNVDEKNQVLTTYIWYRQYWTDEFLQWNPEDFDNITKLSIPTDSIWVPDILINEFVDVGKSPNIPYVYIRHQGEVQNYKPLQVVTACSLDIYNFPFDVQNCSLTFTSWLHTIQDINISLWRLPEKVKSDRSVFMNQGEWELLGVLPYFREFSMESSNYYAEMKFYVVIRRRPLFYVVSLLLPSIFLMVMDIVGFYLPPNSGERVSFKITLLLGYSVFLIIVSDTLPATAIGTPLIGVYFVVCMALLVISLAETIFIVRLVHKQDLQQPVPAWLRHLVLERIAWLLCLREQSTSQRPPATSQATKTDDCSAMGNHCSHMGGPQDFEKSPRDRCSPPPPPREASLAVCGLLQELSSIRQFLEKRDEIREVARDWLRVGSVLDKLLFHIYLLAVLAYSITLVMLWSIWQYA
D(1B) dopamine receptor, sequence (P21918 whole entry): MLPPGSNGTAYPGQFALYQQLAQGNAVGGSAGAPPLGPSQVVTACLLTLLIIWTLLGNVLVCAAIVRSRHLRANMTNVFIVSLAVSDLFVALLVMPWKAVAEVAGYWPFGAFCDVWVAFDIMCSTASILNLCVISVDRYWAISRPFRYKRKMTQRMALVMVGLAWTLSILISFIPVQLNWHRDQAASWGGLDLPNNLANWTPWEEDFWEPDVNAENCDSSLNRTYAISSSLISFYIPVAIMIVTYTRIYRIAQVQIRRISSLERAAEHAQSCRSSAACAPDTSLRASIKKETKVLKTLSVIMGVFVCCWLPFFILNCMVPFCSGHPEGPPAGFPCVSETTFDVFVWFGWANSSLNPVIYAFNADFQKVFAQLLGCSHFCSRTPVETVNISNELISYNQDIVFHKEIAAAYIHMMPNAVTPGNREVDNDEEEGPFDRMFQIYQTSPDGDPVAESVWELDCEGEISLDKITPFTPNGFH

`Cc1cc2c(s1)Nc1ccccc1N=C2N1CCN(C)CC1` [OLANZAPINE] gave a Ki [1] of 1000 nM, a Ki [2] of over 1000 nM and a Ki (D(1B) dopamine receptor) of 100 nM.
`CN1CCN(C2=Nc3cc(Cl)ccc3Nc3ccccc32)CC1` [CLOZAPINE] was tested, and the Ki [2] was over 1000 nM.
`CN1CCC2C(C1)c1cccc3c1N2c1ccccc1CS3` (stereo not drawn) gave a Ki [3] of 794 nM, a Ki (Histamine H2 receptor) of 79.4 nM and a Ki [4] of over 1000 nM. It also gave a Ki [5] of over 1000 nM, an inhibition [6] of 4% and an inhibition (D(2) dopamine receptor [7]) of 0%. The inhibition [8] was 101%, the inhibition (D(2) dopamine receptor [9]) was 95% and the inhibition (Rattus norvegicus [10]) was “Active”. For the same compound, the Activity (Rattus norvegicus [11]) was “Non-toxic”, the Activity (Rattus norvegicus [12]) was “Non-toxic” and the Activity (Rattus norvegicus [13]) was “Non-toxic”. For the same compound, the Activity (Rattus norvegicus [14]) was “Non-toxic”, the Ki [15] was 2 nM and the Ki [16] was 5.01 nM. It also gave a Ki [17] of over 1000 nM, a Ki (D(2) dopamine receptor [18]) of 126 nM and a Ki [19] of 63.1 nM. It also gave a Ki [20] of 31.6 nM, a Ki [21] of over 1000 nM and a Ki [22] of over 1000 nM. For the same compound, the Ki [23] was 794 nM, the Ki [24] was 39.8 nM and the Ki [25] was 316 nM. The Ki [26] was 63.1 nM, the Ki [27] was 2510 nM and the Ki [28] was 7.94 nM. The Ki [1] was 631 nM, the Ki [29] was 15.8 nM and the Ki [30] was 79.4 nM. It also gave a Ki (D(1A) dopamine receptor) of 25.1 nM, a Ki (D(3) dopamine receptor) of 31.6 nM and a Ki [31] of 501 nM. For the same compound, the Ki [32] was over 1000 nM.
For `OCCOCCN1CCN(C2=Nc3ccccc3Sc3ccccc32)CC1` [QUETIAPINE], the Ki [25] was over 1000 nM, the Ki [27] was over 1000 nM and the Ki [2] was over 1000 nM. For the same compound, the Ki (D(1B) dopamine receptor) was over 1000 nM and the Ki [32] was 100 nM.

— ChEMBL document CHEMBL3217546, “The synthesis and receptor binding affinities of DDD-016, a novel, potential, atypical antipsychotic” (Medchemcomm, 2012)
